# Data taken from publication PMC8401265, “Evolutionary Diversification of Host-Targeted Bartonella Effectors Proteins Derived from a Conserved FicTA Toxin-Antitoxin Module” (Microorganisms, 2021).
# Biological target: T1, Btr_BepC FIC (Bartonella tribocorum, UniProt A9IWP7)
# T1 construct: gene bepC
# Test: X-ray crystallography
# Format: binding
# Conditions: active site; pH 6.5 crystals; lysine K150 contacts alpha-phosphate
# T1 sequence (A9IWP7 entry or part of it): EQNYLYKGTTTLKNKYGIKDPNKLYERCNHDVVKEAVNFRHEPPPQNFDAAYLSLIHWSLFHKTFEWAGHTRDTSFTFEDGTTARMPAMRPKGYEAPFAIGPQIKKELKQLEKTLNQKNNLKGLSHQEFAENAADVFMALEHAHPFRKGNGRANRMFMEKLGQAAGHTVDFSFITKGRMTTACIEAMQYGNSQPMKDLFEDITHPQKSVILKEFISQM
smiles,measurement,value
Nc1ncnc2c1ncn2[C@@H]1O[C@H](COP(=O)(O)OP(=O)(O)NP(=O)(O)O)[C@@H](O)[C@H]1O [AMPPNP],X-ray crystallography,the complex of Btr_BepC with AMPPNP (Figure 9A) demonstrates competent tri-phosphate nucleotide binding
